Values quoted from earlier work, collected in patent publication US12052992B2, “Insecticidal composition” (CLARKE MOSQUITO CONTROL PRODUCTS, INC., priority 2017, dated 2024).

Conditions: comparison value for water

## O [water]
  evaporation rate λ: 62.40 μm^2 s^−1° C.^−1
